The test system of one assay is MRC5. As to the kind of experiment: Cytotoxicity against human MRC5 cells assessed as inhibition of cell growth measured after 72 hrs by resazurin staining based […] analysis. Format: functional. The settings on record: MRC5, 72 h. For orientation: Alamar Blue is a resazurin reagent that responds to reducing activity.
For assay [1], the system named is Mycobacterium tuberculosis. As to the kind of experiment: Antimycobacterial activity against Mycobacterium tuberculosis H37Ra infected in mouse RAW264.7 cells assessed as reduction in intracellular bacterial survival at 128 uM incubated for 3 days by luminescence based analysis relative to control. It is filed as functional. As to conditions: time 3 day.
Another assay concerns RAW264.7. As to the kind of experiment: Cytotoxicity against mouse RAW264.7 cells assessed as inhibition of cell growth measured after 72 hrs by resazurin staining based […] analysis. It is filed as functional. The settings on record: RAW264.7, 72 h.
The subject of assay [2] is Mycobacterium tuberculosis. The assay is described as follows: Antimycobacterial activity against Mycobacterium tuberculosis H37Ra ATCC 25177 assessed as inhibition of bacterial growth at 128 uM measured after 7 days by luminescence based analysis relative to control. Format: functional. The settings on record: H37Ra ATCC 25177, 168 h, time 7 day.
The test system of assay [3] is Mycobacterium tuberculosis. The assay is described as follows: Inhibition of Mycobacterium tuberculosis Zmp1 at 8 to 40 uM by MALDI-TOF-MS analysis. As to conditions: dose 8-40 µM.

Among the data in ChEMBL document CHEMBL5247593, “Novel heterocyclic hydroxamates as inhibitors of the mycobacterial zinc metalloprotease Zmp1 to probe its mechanism of function” (Eur J Med Chem, 2022) are IC50, Activity and inhibition values, retold here.

As usually defined, the IC50 is the midpoint of a concentration-inhibition curve. The inhibition is the share of the control response that was lost under treatment.

Turning to `C=CCONC(=O)CN1C(=O)S/C(=C\c2ccc(C(=O)N[C@@H](CC(C)C)C(=O)OC)cc2)C1=O`, the IC50 with MRC5 and with RAW264.7 (read-out: IC50) was greater than 128 µM each time. In addition, the Activity in assay [1] is reported as 67.3%. In addition, in assay [2], the inhibition at 128 µM was 4.4%. This compound also displayed an inhibition in assay [3] of 6%.
As to `CC/C(=C(\c1ccccc1)c1ccc(OCCN(C)C)cc1)c1ccccc1` [TAMOXIFEN], the IC50 was determined as 17.2 µM with MRC5 and 18.5 µM in the assay on RAW264.7.
As to `C=CCONC(=O)Cn1ccc(C(=O)N[C@@H](C)C(=O)N[C@@H](CC(C)C)C(=O)O)c1`, the IC50 in the assay with MRC5 and in the assay with RAW264.7 (read-out: IC50) was greater than 128 µM in each case. Moreover, the inhibition at 128 µM in assay [2] was found to be 13.8%. The inhibition in assay [3] was 88%.
In the case of `COC(=O)[C@H](CC(C)C)NC(=O)c1cccc(/C=C2\SC(=O)N(CC(=O)NOCc3ccccc3)C2=O)c1`, the IC50 with MRC5 and with RAW264.7 (read-out: IC50) was greater than 128 µM in each case. Further, in assay [1], the Activity is reported as 51.9%. The inhibition at 128 µM in assay [2] stood at 4.2%. Moreover, the inhibition in assay [3] was 19%.
As to `COc1nc2ccc(Br)cc2cc1[C@@H](c1ccccc1)[C@@](O)(CCN(C)C)c1cccc2ccccc12` [BEDAQUILINE], the inhibition at 128 µM in assay [2] was determined as 100%.
As to `CC(C)[C@H](NC(=O)CNC(=O)c1cn(CC(=O)NOCc2ccccc2)c2ccccc12)C(=O)O`, the IC50 in the assay with MRC5 and in the assay with RAW264.7 (read-out: IC50) was greater than 128 µM throughout. Besides, the Activity in assay [1] was 37.2%. The inhibition at 128 µM in assay [2] is 30.3%. This compound also came in with an inhibition in assay [3] of 69%.
As for `C=CCONC(=O)CN1C(=O)S/C(=C\c2cccc(C(=O)N[C@@H](CC(C)C)C(=O)OC)c2)C1=O`, the IC50 in the assay on MRC5 and in the assay with RAW264.7 (read-out: IC50) was greater than 128 µM in each case. For the same compound, the Activity in assay [1] is listed as 46.3%. The inhibition at 128 µM in assay [2] was 3.2%. Also, the inhibition in assay [3] came to 47%.
With `CO[C@H]1/C=C/O[C@@]2(C)Oc3c(C)c(O)c4c(O)c(c(/C=N/N5CCN(C)CC5)c(O)c4c3C2=O)NC(=O)/C(C)=C\C=C\[C@H](C)[C@H](O)[C@@H](C)[C@@H](O)[C@@H](C)[C@H](OC(C)=O)[C@@H]1C` [RIFAMPIN], in assay [2], the inhibition at 128 µM is 100%.
`C=CCONC(=O)Cn1cc(C(=O)NCC(=O)N[C@@H](CC(C)C)C(=O)O)c2ccccc21`: the IC50 in the assay with MRC5 and in the assay on RAW264.7 (read-out: IC50) was greater than 128 µM throughout. Also, in assay [2], the inhibition at 128 µM was determined as 14.6%. For the same compound, the inhibition in assay [3] stood at 47%.
Take `C=CCONC(=O)CN1C(=O)S/C(=C\c2ccc(C(=O)N[C@H](C(=O)OC)C(C)C)cc2)C1=O`: the IC50 in the assay on MRC5 and in the assay on RAW264.7 (read-out: IC50) was greater than 128 µM throughout. For the same compound, the Activity in assay [1] is given as 28.4%. The inhibition at 128 µM in assay [2] was found to be 8.2%. This compound returned an inhibition in assay [3] of 38%.
In the case of `CC(C)C[C@H](NC(=O)CNC(=O)c1ccn(CC(=O)NOCc2ccccc2)c1)C(=O)O`, the IC50 in the assay with MRC5 and with RAW264.7 (read-out: IC50) was greater than 128 µM each time. The inhibition at 128 µM in assay [2] came to 9.2%. The compound also had an inhibition in assay [3] of 26%.
On to `C=CCONC(=O)Cn1cc(C(=O)NCC(=O)N[C@H](C(=O)O)C(C)C)c2ccccc21`, for which the IC50 in the assay with MRC5 and with RAW264.7 (read-out: IC50) was greater than 128 µM each time. In addition, the inhibition at 128 µM in assay [2] is 10.3%. In assay [3], this compound showed an inhibition of 56%.
Turning to `C=CCONC(=O)Cn1cc(C(=O)N[C@@H](C)C(=O)N[C@@H](CC(C)C)C(=O)O)c2ccccc21`, the IC50 in the assay with MRC5 and in the assay with RAW264.7 (read-out: IC50) was greater than 128 µM each time. The inhibition at 128 µM in assay [2] was found to be 12.4%. The compound further had an inhibition in assay [3] of 86%.
In the case of `CC(C)C[C@H](NC(=O)[C@H](C)NC(=O)c1cn(CC(=O)NOCc2ccccc2)c2ccccc12)C(=O)O`, the half-maximal inhibitory concentration (IC50) in the assay with MRC5 and in the assay with RAW264.7 (read-out: IC50) was greater than 128 µM in each case. In addition, in assay [2], the inhibition at 128 µM came out at 13.6%. The inhibition in assay [3] came to 56%.
As to `C=CCONC(=O)Cn1ccc(C(=O)N[C@@H](C)C(=O)N[C@H](C(=O)O)C(C)C)c1`, the IC50 with MRC5 and in the assay with RAW264.7 (read-out: IC50) was greater than 128 µM each time. Also, in assay [2], the inhibition at 128 µM came out at 12.8%. Further, the inhibition in assay [3] worked out at 27%.
For the compound `CC(C)C[C@H](NC(=O)[C@H](C)NC(=O)c1ccn(CC(=O)NOCc2ccccc2)c1)C(=O)O`, the IC50 in the assay with MRC5 and in the assay on RAW264.7 (read-out: IC50) was greater than 128 µM each time. Also, the inhibition at 128 µM in assay [2] amounted to 3.2%. In assay [3], this compound came in with an inhibition of 62%.
In assay [3], `C=CCONC(=O)Cn1ccc(C(=O)NCC(=O)N[C@H](C(=O)O)C(C)C)c1` gave an inhibition of 14%.
For `CC(C)[C@H](NC(=O)CNC(=O)c1ccn(CC(=O)NOCc2ccccc2)c1)C(=O)O`, the IC50 with MRC5 and in the assay on RAW264.7 (read-out: IC50) was greater than 128 µM each time. Moreover, the inhibition at 128 µM in assay [2] came out at 5.9%. In assay [3], this compound displayed an inhibition of 70%.
Take `C=CCONC(=O)Cn1ccc(C(=O)NCC(=O)N[C@@H](CC(C)C)C(=O)O)c1`: the IC50 in the assay with MRC5 and with RAW264.7 (read-out: IC50) was greater than 128 µM each time. Besides, the inhibition at 128 µM in assay [2] amounted to 6.9%. In assay [3], this compound showed an inhibition of 13%.
Take `C=CCONC(=O)Cn1cc(C(=O)N[C@@H](C)C(=O)N[C@H](C(=O)O)C(C)C)c2ccccc21`: the 50% inhibitory concentration (IC50) in the assay on MRC5 and with RAW264.7 (read-out: IC50) was greater than 128 µM throughout. Further, in assay [2], the inhibition at 128 µM amounted to 13.6%. This compound also yielded an inhibition in assay [3] of 50%.
As for `C=CCONC(=O)CN1C(=O)S/C(=C\c2cccc(C(=O)N[C@H](C(=O)OC)C(C)C)c2)C1=O`, the IC50 with MRC5 and with RAW264.7 (read-out: IC50) was greater than 128 µM throughout. Besides, the Activity in assay [1] was found to be 14.1%. Besides, the inhibition at 128 µM in assay [2] was 3.4%.
Consider `COC(=O)[C@@H](NC(=O)c1cccc(/C=C2\SC(=O)N(CC(=O)NOCc3ccccc3)C2=O)c1)C(C)C`, for which the IC50 with MRC5 and with RAW264.7 (read-out: IC50) was greater than 128 µM each time. Further, the Activity in assay [1] amounted to 35.1%. Also, the inhibition at 128 µM in assay [2] is 6.3%.
As for `CC(C)[C@H](NC(=O)[C@H](C)NC(=O)c1cn(CC(=O)NOCc2ccccc2)c2ccccc12)C(=O)O`, the IC50 with MRC5 and in the assay on RAW264.7 (read-out: IC50) was greater than 128 µM each time. For the same compound, the inhibition at 128 µM in assay [2] came out at 23.6%. In addition, the inhibition in assay [3] turned out to be 59%.
As to `COC(=O)[C@H](CC(C)C)NC(=O)c1ccc(/C=C2\SC(=O)N(CC(=O)NOCc3ccccc3)C2=O)cc1`, the IC50 in the assay on MRC5 and with RAW264.7 (read-out: IC50) was greater than 128 µM each time. Also, the Activity in assay [1] was 80.3%. Moreover, the inhibition at 128 µM in assay [2] was found to be 2%. In assay [3], this compound yielded an inhibition of 5%.
On to `COC(=O)[C@@H](NC(=O)c1ccc(/C=C2\SC(=O)N(CC(=O)NOCc3ccccc3)C2=O)cc1)C(C)C`, for which the IC50 in the assay on MRC5 and in the assay with RAW264.7 (read-out: IC50) was greater than 128 µM each time. Also, the Activity in assay [1] stood at 83.2%. Moreover, in assay [2], the inhibition at 128 µM amounted to 6.2%. Further, the inhibition in assay [3] was found to be 41%.
Take `CC(C)[C@H](NC(=O)[C@H](C)NC(=O)c1ccn(CC(=O)NOCc2ccccc2)c1)C(=O)O`: the IC50 in the assay with MRC5 and in the assay on RAW264.7 (read-out: IC50) was greater than 128 µM throughout. Further, in assay [2], the inhibition at 128 µM is 6.9%. The inhibition in assay [3] is 16%.
Take `CC(C)C[C@H](NC(=O)CNC(=O)c1cn(CC(=O)NOCc2ccccc2)c2ccccc12)C(=O)O`: the IC50 in the assay on MRC5 and in the assay with RAW264.7 (read-out: IC50) was greater than 128 µM each time. The inhibition at 128 µM in assay [2] is 11.1%. The compound further registered an inhibition in assay [3] of 57%.
For `NNC(=O)c1ccncc1` [ISONIAZID], the inhibition at 128 µM in assay [2] is 100%.
